The text below walks through data of patent US12649750B2, “Macrocyclic compounds, compositions, and methods of using thereof” (Sionna Therapeutics Inc., priority 2022, dated 2026).

One assay has as its target T1, CFTR (Homo sapiens, UniProt P13569, DEL508-508).
T1 construct: Primary human bronchial epithelial cells from a ΔF508 homozygous CF donor; host or cells: primary human bronchial epithelial cells (CF-HBE), ΔF508 homozygous donor
Nature of the assay: TECC24 AUC fold over DMSO @10 μM, CFTR-mediated transepithelial chloride transport in CF-HBE cells. It counts as cell-based. The settings on record: test agent AUC divided by DMSO vehicle AUC, primary CF-HBE cells, ΔF508 homozygous donor, 48 hours incubation. The gist of the method:
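ΔF508-homozygous primary bronchial epithelial cells incubated 48 h at 36.5° C with compound (10 μM) in IL-13-containing medium, then TECC24 current-clamp recording in pH 7.4 Hepes saline with benzamil 10 μM, forskolin 10 μM, then CFTR inhibitor-172 20 μM. Equivalent Cl− current AUC between forskolin and inhibitor, expressed as fold over DMSO.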

The next assay deals with T2, NBD1 (Homo sapiens, UniProt P13569).
T2 construct: Purified recombinant NBD1 was produced using previously described methods; made in house
Put plainly: Aggregation analysis using differential static light scattering (DSLS), thermal stability of NBD1 (ΔTagg). Format: binding. The settings on record: ΔTagg versus DMSO control, NBD1 0.2 mg/ml. The gist of the method: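 Thermal aggregation of purified NBD1 was followed by static light scattering during a 1° C./min ramp to 70° C. Protein was at 0.2 mg/ml with 2 mM ATP at pH7.6. Each compound's Tagg was referenced to DMSO controls.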

T2 sequence (P13569 423-646 limits assumed): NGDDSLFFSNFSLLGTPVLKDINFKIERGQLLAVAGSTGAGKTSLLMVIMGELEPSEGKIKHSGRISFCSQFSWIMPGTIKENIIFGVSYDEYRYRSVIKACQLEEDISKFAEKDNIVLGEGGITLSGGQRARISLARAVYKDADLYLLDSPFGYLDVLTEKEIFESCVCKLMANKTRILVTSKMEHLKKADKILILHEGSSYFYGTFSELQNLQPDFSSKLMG
T1 sequence (P13569 with tags, fused parts or gaps DEL508-508): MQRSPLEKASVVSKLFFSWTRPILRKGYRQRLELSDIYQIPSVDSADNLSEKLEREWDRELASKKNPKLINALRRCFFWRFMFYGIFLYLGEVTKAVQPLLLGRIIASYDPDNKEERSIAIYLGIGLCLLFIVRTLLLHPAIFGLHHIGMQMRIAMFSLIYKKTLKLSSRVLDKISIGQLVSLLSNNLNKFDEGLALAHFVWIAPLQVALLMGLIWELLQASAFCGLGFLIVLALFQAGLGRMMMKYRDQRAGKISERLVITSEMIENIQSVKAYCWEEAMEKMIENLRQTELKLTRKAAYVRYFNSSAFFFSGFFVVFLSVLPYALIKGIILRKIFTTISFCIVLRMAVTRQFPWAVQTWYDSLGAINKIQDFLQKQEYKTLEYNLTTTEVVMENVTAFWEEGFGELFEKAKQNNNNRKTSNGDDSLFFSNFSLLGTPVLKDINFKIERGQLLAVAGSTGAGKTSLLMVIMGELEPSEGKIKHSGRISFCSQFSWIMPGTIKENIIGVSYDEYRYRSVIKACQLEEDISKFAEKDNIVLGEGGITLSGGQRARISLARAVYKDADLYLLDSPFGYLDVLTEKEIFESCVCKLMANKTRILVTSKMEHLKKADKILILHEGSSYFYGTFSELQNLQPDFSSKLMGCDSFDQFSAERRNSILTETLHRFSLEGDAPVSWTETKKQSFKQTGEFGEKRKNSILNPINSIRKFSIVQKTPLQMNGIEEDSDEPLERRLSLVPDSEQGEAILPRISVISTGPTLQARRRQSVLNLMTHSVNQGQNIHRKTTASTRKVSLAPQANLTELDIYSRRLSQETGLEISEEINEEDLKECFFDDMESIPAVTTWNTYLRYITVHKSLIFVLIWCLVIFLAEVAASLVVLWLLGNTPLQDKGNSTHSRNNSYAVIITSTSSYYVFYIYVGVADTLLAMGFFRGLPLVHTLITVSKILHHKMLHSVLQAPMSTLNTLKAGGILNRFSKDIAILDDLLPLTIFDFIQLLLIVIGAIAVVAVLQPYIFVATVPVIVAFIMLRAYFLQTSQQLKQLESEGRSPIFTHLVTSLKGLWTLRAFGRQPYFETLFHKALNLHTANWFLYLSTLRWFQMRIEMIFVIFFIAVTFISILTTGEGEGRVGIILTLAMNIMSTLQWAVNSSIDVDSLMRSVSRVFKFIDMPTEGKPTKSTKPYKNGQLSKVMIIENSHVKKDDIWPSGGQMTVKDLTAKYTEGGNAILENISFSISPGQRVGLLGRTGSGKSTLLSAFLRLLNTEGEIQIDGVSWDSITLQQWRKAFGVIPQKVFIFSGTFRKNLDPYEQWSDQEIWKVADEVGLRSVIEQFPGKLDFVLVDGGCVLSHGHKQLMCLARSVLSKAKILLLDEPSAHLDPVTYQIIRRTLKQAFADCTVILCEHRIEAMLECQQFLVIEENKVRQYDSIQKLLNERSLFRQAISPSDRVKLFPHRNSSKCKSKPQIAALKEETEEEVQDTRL

Turning to `Cn1nc2nc1-c1cc(ccc1F)Oc1c(F)cc3[nH]ccc3c1Cn1cc(cn1)C(C)(C)CS(=O)(=O)CCC2(C)c1cccc(CCC(=O)O)c1` (single isomer, unassigned) [Compound 109A, 3-[3-(24,30-difluoro-3,6,11,11-tetramethyl-9,9-dioxo-26-oxa-9lambda6-thia-3,4,14,15,21,33-hexazahexacyclo[25.3.1.12,5.112,15.017,25.018,22]tritriaconta-1(31),2(33),4,12(32),13,17,19,22,24,27,29-undecaen-6-yl)phenyl]propanoic Acid], the “TECC (AUC, 10 μM)” value on CFTR was “C (a value between 20 and 80 is marked “C”)”. In addition, the “DSLS 3D (100 μM ΔT)” value on NBD1 was “C (a value greater than 10 °C and less than or equal to 25 °C is marked “C”)”.
Consider `Cn1nc2nc1-c1cc(ccc1F)Oc1c(F)cc3[nH]ccc3c1Cn1cc(cn1)C(C)(C)CS(=O)(=O)CCC2(C)c1cccc(CCC(=O)O)c1` (single isomer, unassigned) [Compound 109B, 3-[3-(24,30-difluoro-3,6,11,11-tetramethyl-9,9-dioxo-26-oxa-9lambda6-thia-3,4,14,15,21,33-hexazahexacyclo[25.3.1.12,5.112,15.017,25.018,22]tritriaconta-1(31),2(33),4,12(32),13,17,19,22,24,27,29-undecaen-6-yl)phenyl]propanoic Acid], for which, on CFTR, the “TECC (AUC, 10 μM)” value is listed as “A (a TECC value less than 12 is marked “A”)”. The “DSLS 3D (100 μM ΔT)” value at NBD1 was “A (an ΔTagg value less than or equal to 5 °C is marked “A”)”.
As to `CC(Cc1cccc(C2(C)COCC(C)(C)CS(=O)(=O)CCc3c(c(F)cc4[nH]ccc34)Oc3ccc(F)c(c3)-c3nc2nn3C)c1)C(=O)O` (single isomer, unassigned) [Compound 113A], on CFTR, the “TECC (AUC, 10 μM)” value was “A (a TECC value less than 12 is marked “A”)”. Further, the “DSLS 3D (100 μM ΔT)” value on NBD1 was “C (a value greater than 10 °C and less than or equal to 25 °C is marked “C”)”.
Take `CC(Cc1cccc(C2(C)COCC(C)(C)CS(=O)(=O)CCc3c(c(F)cc4[nH]ccc34)Oc3ccc(F)c(c3)-c3nc2nn3C)c1)C(=O)O` (single isomer, unassigned) [Compound 113B]: on CFTR, the “TECC (AUC, 10 μM)” value is given as “A (a TECC value less than 12 is marked “A”)”. Moreover, the “DSLS 3D (100 μM ΔT)” value at NBD1 is “A (an ΔTagg value less than or equal to 5 °C is marked “A”)”.
With `[2H]C([2H])([2H])C1(c2cccc(CC(C)C(=O)O)c2)COCC(C)(C)CS(=O)(=O)CCc2c(c(F)c(F)c3[nH]ccc23)Oc2ccc(F)c(c2)-c2nc1nn2C` (single isomer, unassigned) [Compound 118A, 2-methyl-3-[3-[21,22,28-trifluoro-3,10,10-trimethyl-12,12-dioxo-6-(trideuteriomethyl)-8,24-dioxa-12λ6-thia-3,4,19,30-tetrazapentacyclo[23.3.1.12,5.015,23.016,20]triaconta-1(29),2(30),4,15,17,20,22,25,27-nonaen-6-yl]phenyl]propanoic acid], the “TECC (AUC, 10 μM)” value on CFTR is “A (a TECC value less than 12 is marked “A”)”. Also, the “DSLS 3D (100 μM ΔT)” value at NBD1 was “C (a value greater than 10 °C and less than or equal to 25 °C is marked “C”)”.
With `[2H]C([2H])([2H])C1(c2cccc(CC(C)C(=O)O)c2)COCC(C)(C)CS(=O)(=O)CCc2c(c(F)c(F)c3[nH]ccc23)Oc2ccc(F)c(c2)-c2nc1nn2C` (single isomer, unassigned) [Compound 118B, 2-methyl-3-[3-[21,22,28-trifluoro-3,10,10-trimethyl-12,12-dioxo-6-(trideuteriomethyl)-8,24-dioxa-12λ6-thia-3,4,19,30-tetrazapentacyclo[23.3.1.12,5.015,23.016,20]triaconta-1(29),2(30),4,15,17,20,22,25,27-nonaen-6-yl]phenyl]propanoic acid], on CFTR, the “TECC (AUC, 10 μM)” value is “A (a TECC value less than 12 is marked “A”)”. Also, the “DSLS 3D (100 μM ΔT)” value at NBD1 is “A (an ΔTagg value less than or equal to 5 °C is marked “A”)”.
On the same counts, the results for `[2H]C([2H])([2H])C1(c2cccc(CC(C)C(=O)O)c2)CCC(C)(C)CCS(=O)(=O)CCc2c(c(F)cc3[nH]ccc23)Oc2ccc(F)c(c2)-c2nc1nn2C` (single isomer, unassigned) [Compound 119A, 3-[3-[22,28-difluoro-3,9,9-trimethyl-12,12-dioxo-6-(trideuteriomethyl)-24-oxa-12lambda6-thia-3,4,19,30-tetrazapentacyclo[23.3.1.12,5.015,23.016,20]triaconta-1(29),2(30),4,15,17,20,22,25,27-nonaen-6-yl]phenyl]-2-methyl-propanoic acid] are “A (a TECC value less than 12 is marked “A”)” and “A (an ΔTagg value less than or equal to 5 °C is marked “A”)”.
Take `[2H]C([2H])([2H])C1(c2cccc(CC(C)C(=O)O)c2)CCC(C)(C)CCS(=O)(=O)CCc2c(c(F)cc3[nH]ccc23)Oc2ccc(F)c(c2)-c2nc1nn2C` (single isomer, unassigned) [Compound 119B, 3-[3-[22,28-difluoro-3,9,9-trimethyl-12,12-dioxo-6-(trideuteriomethyl)-24-oxa-12lambda6-thia-3,4,19,30-tetrazapentacyclo[23.3.1.12,5.015,23.016,20]triaconta-1(29),2(30),4,15,17,20,22,25,27-nonaen-6-yl]phenyl]-2-methyl-propanoic acid]: the “TECC (AUC, 10 μM)” value on CFTR is listed as “A (a TECC value less than 12 is marked “A”)”. In addition, on NBD1, the “DSLS 3D (100 μM ΔT)” value is “B (a value above 5 °C and less than or equal to 10 °C is marked “B”)”.
On to `[2H]C([2H])([2H])C1(c2cccc(CC3(C(=O)O)CC3)c2)CCCC(C)(C)CS(=O)(=O)CCc2c(c(F)cc3[nH]ccc23)Oc2ccc(F)c(c2)-c2nc1nn2C` (single isomer, unassigned) [Compound 120A, 1-[[3-[22,28-difluoro-3,10,10-trimethyl-12,12-dioxo-6-(trideuteriomethyl)-24-oxa-12λ6-thia-3,4,19,30-tetrazapentacyclo[23.3.1.12,5.015,23.016,20]triaconta-1(29),2(30),4,15,17,20,22,25,27-nonaen-6-yl]phenyl]methyl]cyclopropanecarboxylic Acid], for which, on CFTR, the “TECC (AUC, 10 μM)” value is “A (a TECC value less than 12 is marked “A”)”. Moreover, the “DSLS 3D (100 μM ΔT)” value on NBD1 is “C (a value greater than 10 °C and less than or equal to 25 °C is marked “C”)”.
As to `[2H]C([2H])([2H])C1(c2cccc(CC3(C(=O)O)CC3)c2)CCCC(C)(C)CS(=O)(=O)CCc2c(c(F)cc3[nH]ccc23)Oc2ccc(F)c(c2)-c2nc1nn2C` (single isomer, unassigned) [Compound 120B, 1-[[3-[22,28-difluoro-3,10,10-trimethyl-12,12-dioxo-6-(trideuteriomethyl)-24-oxa-12λ6-thia-3,4,19,30-tetrazapentacyclo[23.3.1.12,5.015,23.016,20]triaconta-1(29),2(30),4,15,17,20,22,25,27-nonaen-6-yl]phenyl]methyl]cyclopropanecarboxylic Acid], the “TECC (AUC, 10 μM)” value on CFTR was “A (a TECC value less than 12 is marked “A”)”. The “DSLS 3D (100 μM ΔT)” value on NBD1 was “A (an ΔTagg value less than or equal to 5 °C is marked “A”)”.
Take `Cn1nc2nc1-c1cc(ccc1F)Oc1c(F)c(F)c3[nH]ccc3c1CCS(=O)(=O)CC(C)(C)CCCC2(C#N)c1cccc(CC2(C(=O)O)CC2)c1` (single isomer, unassigned) [Compound 121A, 1-[[3-(6-cyano-21,22,28-trifluoro-3,10,10-trimethyl-12,12-dioxo-24-oxa-12λ6-thia-3,4,19,30-tetrazapentacyclo[23.3.1.12,5.015,23.016,20]triaconta-1(29),2(30),4,15,17,20,22,25,27-nonaen-6-yl)phenyl]methyl]cyclopropanecarboxylic Acid]: on CFTR, the “TECC (AUC, 10 μM)” value is recorded as “B (a value between 12-20 is marked “B”)”. For the same molecule, the “DSLS 3D (100 μM ΔT)” value on NBD1 was “C (a value greater than 10 °C and less than or equal to 25 °C is marked “C”)”.
For the molecule `Cn1nc2nc1-c1cc(ccc1F)Oc1c(F)c(F)c3[nH]ccc3c1CCS(=O)(=O)CC(C)(C)CCCC2(C#N)c1cccc(CC2(C(=O)O)CC2)c1` (single isomer, unassigned) [Compound 121B, 1-[[3-(6-cyano-21,22,28-trifluoro-3,10,10-trimethyl-12,12-dioxo-24-oxa-12λ6-thia-3,4,19,30-tetrazapentacyclo[23.3.1.12,5.015,23.016,20]triaconta-1(29),2(30),4,15,17,20,22,25,27-nonaen-6-yl)phenyl]methyl]cyclopropanecarboxylic Acid], the “TECC (AUC, 10 μM)” value at CFTR is recorded as “A (a TECC value less than 12 is marked “A”)”. The “DSLS 3D (100 μM ΔT)” value at NBD1 was “A (an ΔTagg value less than or equal to 5 °C is marked “A”)”.
Turning to `Cn1nc2nc1-c1cc(ccc1F)Oc1c(F)cc3[nH]ccc3c1CCS(=O)(=O)CC(C)(C)CCCC2(C#N)c1cccc(CC2(C(=O)O)CC2)c1` (single isomer, unassigned) [Compound 122A, 1-[[3-(6-cyano-22,28-difluoro-3,10,10-trimethyl-12,12-dioxo-24-oxa-12λ6-thia-3,4,19,30-tetrazapentacyclo[23.3.1.12,5.015,23.016,20]triaconta-1(29),2(30),4,15,17,20,22,25,27-nonaen-6-yl)phenyl]methyl]cyclopropanecarboxylic Acid], on CFTR, the “TECC (AUC, 10 μM)” value was “A (a TECC value less than 12 is marked “A”)”. The “DSLS 3D (100 μM ΔT)” value at NBD1 is “C (a value greater than 10 °C and less than or equal to 25 °C is marked “C”)”.
